Laboratory results published in patent US9029325B2, “Amylin analogues and pharmaceutical compositions thereof” (Novo Nordisk A/S, priority 2011, dated 2015).
Starred links: 1 amine or outer side, 2 acyl side, 3 side chain; linkers in the order of their positions; H or OH if unused. Positions of bridges follow the written chain, without caps; N, C: chain ends. Residues, ends and D or L forms follow the SMILES beside them. *: point of attachment. C20 diacid = O=C(O)CCCCCCCCCCCCCCCCCCC(=O)*; γGlu = O=C(O)[C@H](CCC(=O)[*:2])N[*:1]

Test: Assay (III) ThT fibrillation assay for physical stability
Format: physicochemical
Conditions: for Th T pH 4.0 lag time (h): 37° C., orbital shaking 960 rpm; for ThT pH 4.0 lag time: Table 9
From the text: Low physical stability of a polypeptide may lead to amyloid fibril formation, which is observed as well-ordered, thread-like macromolecular structures in the sample eventually resulting in gel formation. This has traditionally been measured by visual inspection of the sample. However, that kind of measurement is very subjective and depending on the observer. Therefore, the application of a small molecule indicator probe is much more advantageous. Thioflavin T (ThT) is such a probe and has a distinct fluorescence signature when binding to fibrils [Naiki et al. (1989) Anal. Biochem. 177, 244-249; LeVine (1999) Methods. Enzymol. […], 274-284].
The time course for fibril formation can be described by a sigmoidal curve with the following expression [Nielsen et al. (2001) Biochemistry 40, 6036-6046]:
[formula] Here, F is the ThT fluorescence at the time t. The constant t0 is the time needed to reach 50% of maximum fluorescence. The two important parameters describing fibril formation are the lag-time calculated by t0−2T and the apparent rate constant kapp=1/τ.
Few of those intermediates nucleate to form a template onto which further intermediates may assembly and the fibrillation proceeds. The lag-time corresponds to the interval in which the critical mass of nucleus is built up and the apparent rate constant is the rate with which the fibril itself is formed.
Samples were prepared freshly before each assay. Each sample composition is described in each example. The pH of the sample was adjusted to the desired value using appropriate amounts of concentrated NaOH and HClO4 or HCl. Thioflavin T was added to the samples from a stock solution in H2O to a final concentration of 1 μM.
Sample aliquots of 200 μl were placed in a 96 well microtiter plate (Packard OptiPlate™-96, white polystyrene). Usually, four or eight replica of each sample (corresponding to one test condition) were placed in one column of wells. The plate was sealed with Scotch Pad (Qiagen).
Incubation at given temperature, shaking and measurement of the ThT fluorescence emission were done in a Fluoroskan Ascent FL fluorescence platereader or Varioskan platereader (Thermo Labsystems). The temperature was adjusted to 37° C. The orbital shaking was adjusted to 960 rpm with an amplitude of 1 mm in all the presented data. Fluorescence measurement was done using excitation through a 444 nm filter and measurement of emission through a 485 nm filter.
Each run was initiated by incubating the plate at the assay temperature for 10 min. The plate was measured every 20 minutes for a desired period of time. Between each measurement, the plate was shaken and heated as described.
The measurement points were saved in Microsoft Excel format for further processing and curve drawing and fitting was performed using GraphPad Prism. The background emission from ThT in the absence of fibrils was negligible. The data points are typically a mean of four or eight samples and shown with standard deviation error bars. Only data obtained in the same experiment (i.e. samples on the same plate) are presented in the same graph ensuring a relative measure of fibrillation […].
The data set may be fitted to Eq. (1). However, since full sigmodial curves in this case are not always achieved during the measurement time, the degree of fibrillation is expressed as ThT fluorescence tabulated as the mean of the samples and shown with the standard deviation at various time points.
The polypeptide concentration in each of the tested formulations were measured both before application in the ThT fibrillation assay (“Initial”) and after completion of the ThT fibrillation (“After ThT assay”). Concentrations were determined by reverse HPLC methods using a pramlintide standard as a reference. Before measurement after completion 150 μl was collected from each of the replica and transferred to an Eppendorf tube. These were centrifuged at 30000 G for 40 mins. […]

SMILES: CC[C@H](C)[C@H](NC(=O)[C@@H]1CCCN1C(=O)CNC(=O)[C@H](Cc1ccccc1)NC(=O)[C@H](CC(N)=O)NC(=O)[C@H](CC(N)=O)NC(=O)[C@H](CO)NC(=O)[C@H](CO)NC(=O)[C@H](Cc1c[nH]cn1)NC(=O)[C@H](CCCNC(=N)N)NC(=O)[C@H](CC(C)C)NC(=O)[C@H](Cc1ccccc1)NC(=O)[C@H](CCC(=O)O)NC(=O)[C@H](C)NC(=O)[C@H](CC(C)C)NC(=O)[C@H](CCCNC(=N)N)NC(=O)[C@H](CCC(N)=O)NC(=O)[C@@H](NC(=O)[C@H](C)NC(=O)[C@@H]1CSSC[C@H](NC(=O)[C@H](CCCNC(=N)N)NC(=O)[C@H](CCC(=O)O)NC(=O)CC[C@H](NC(=O)CCCCCCCCCCCCCCCCCCC(=O)O)C(=O)O)C(=O)N[C@@H](CC(N)=O)C(=O)N[C@@H]([C@@H](C)O)C(=O)N[C@@H](C)C(=O)N[C@@H]([C@@H](C)O)C(=O)N1)[C@@H](C)O)C(=O)N[C@@H](CC(C)C)C(=O)N1CCC[C@H]1C(=O)N1CCC[C@H]1C(=O)N[C@H](C(=O)N[C@@H](CC(N)=O)C(=O)N[C@H](C(=O)NCC(=O)N[C@@H](CO)C(=O)N[C@@H](CC(N)=O)C(=O)N[C@H](C(=O)N1CCC[C@H]1C(N)=O)[C@@H](C)O)C(C)C)[C@@H](C)O [Example 156, N-alpha-[(S)-4-Carboxy-4-(19-carboxynonadecanoylamino)butyryl]-Glu-[Arg1, Glu14, Arg17, Pro37]-pramlintide] ({C20 diacid-γGlu}-ERCNTATCATQRLAEFLRHSSNNFGPILPPTNVGSNTP-NH2; disulfide 3-8)
- Th T pH 4.0 lag time (h): >45 h

SMILES: CC[C@H](C)[C@H](NC(=O)[C@@H]1CCCN1C(=O)CNC(=O)[C@H](Cc1ccccc1)NC(=O)[C@H](CC(N)=O)NC(=O)[C@H](CCC(N)=O)NC(=O)[C@H](CO)NC(=O)[C@H](CO)NC(=O)[C@H](Cc1c[nH]cn1)NC(=O)[C@H](CCCNC(=N)N)NC(=O)[C@H](CC(C)C)NC(=O)[C@H](Cc1ccccc1)NC(=O)[C@H](CCC(=O)O)NC(=O)[C@H](C)NC(=O)[C@H](CC(C)C)NC(=O)[C@H](CCCNC(=N)N)NC(=O)[C@H](CCC(N)=O)NC(=O)[C@@H](NC(=O)[C@H](C)NC(=O)[C@@H]1CSSC[C@H](NC(=O)[C@H](CCC(=O)O)NC(=O)[C@H](CCCNC(=N)N)NC(=O)[C@H](CCC(=O)O)NC(=O)CC[C@H](NC(=O)CCCCCCCCCCCCCCCCCCC(=O)O)C(=O)O)C(=O)N[C@@H](CC(N)=O)C(=O)N[C@@H]([C@@H](C)O)C(=O)N[C@@H](C)C(=O)N[C@@H]([C@@H](C)O)C(=O)N1)[C@@H](C)O)C(=O)N[C@@H](CC(C)C)C(=O)N1CCC[C@H]1C(=O)N1CCC[C@H]1C(=O)N[C@H](C(=O)N[C@@H](CC(N)=O)C(=O)N[C@H](C(=O)NCC(=O)N[C@@H](CO)C(=O)N[C@@H](CC(N)=O)C(=O)N[C@H](C(=O)N1CCC[C@H]1C(N)=O)[C@@H](C)O)C(C)C)[C@@H](C)O [Example 161, N-alpha-[(S)-4-Carboxy-4-(19-carboxynonadecanoylamino)butyryl]-Glu-Arg-[Glu1, Glu14, Arg17, Gln21, Pro37]-pramlintide] ({C20 diacid-γGlu}-ERECNTATCATQRLAEFLRHSSQNFGPILPPTNVGSNTP-NH2; disulfide 4-9 (inferred); C-terminus assumed)
- Th T pH 4.0 lag time (h): >45 h
- ThT pH 4.0 lag time: >45 hr

SMILES: CC[C@H](C)[C@H](NC(=O)[C@@H]1CCCN1C(=O)CNC(=O)[C@H](Cc1ccccc1)NC(=O)[C@H](CC(N)=O)NC(=O)[C@H](CCC(N)=O)NC(=O)[C@H](CO)NC(=O)[C@H](CO)NC(=O)[C@H](Cc1c[nH]cn1)NC(=O)[C@H](CCCNC(=N)N)NC(=O)[C@H](CC(C)C)NC(=O)[C@H](Cc1ccccc1)NC(=O)[C@H](CCC(=O)O)NC(=O)[C@H](C)NC(=O)[C@H](CC(C)C)NC(=O)[C@H](CCCNC(=N)N)NC(=O)[C@H](CCC(N)=O)NC(=O)[C@@H](NC(=O)[C@H](C)NC(=O)[C@@H]1CSSC[C@H](NC(=O)[C@H](CCC(=O)O)NC(=O)[C@H](CCCNC(=N)N)NC(=O)[C@H](CCC(=O)O)NC(=O)CC[C@H](NC(=O)CCCCCCCCCCCCCCCCCCC(=O)O)C(=O)O)C(=O)N[C@@H](CC(N)=O)C(=O)N[C@@H]([C@@H](C)O)C(=O)N[C@@H](C)C(=O)N[C@@H]([C@@H](C)O)C(=O)N1)[C@@H](C)O)C(=O)N[C@@H](CC(C)C)C(=O)N1CCC[C@H]1C(=O)N1CCC[C@H]1C(=O)N[C@H](C(=O)N[C@@H](CC(N)=O)C(=O)N[C@H](C(=O)NCC(=O)N[C@@H](CO)C(=O)N[C@@H](CCC(N)=O)C(=O)N[C@H](C(=O)N1CCC[C@H]1C(N)=O)[C@@H](C)O)C(C)C)[C@@H](C)O [Example 162, N-alpha-[(S)-4-Carboxy-4-(19-carboxynonadecanoylamino)butyryl]-Glu-Arg-[Glu1, Glu14, Arg17, Gln21, Gln35, Pro37]-pramlintide] ({C20 diacid-γGlu}-ERECNTATCATQRLAEFLRHSSQNFGPILPPTNVGSQTP-NH2; disulfide 4-9)
- Th T pH 4.0 lag time (h): >45 h
- ThT pH 4.0 lag time: >45 hr

SMILES: CC[C@H](C)[C@H](NC(=O)[C@@H]1CCCN1C(=O)CNC(=O)[C@H](Cc1ccccc1)NC(=O)[C@H](CC(N)=O)NC(=O)[C@H](CCC(N)=O)NC(=O)[C@H](CO)NC(=O)[C@H](CO)NC(=O)[C@H](Cc1c[nH]cn1)NC(=O)[C@H](CCCNC(=N)N)NC(=O)[C@H](CC(C)C)NC(=O)[C@H](Cc1ccccc1)NC(=O)[C@H](CCC(=O)O)NC(=O)[C@H](C)NC(=O)[C@H](CC(C)C)NC(=O)[C@H](CCCNC(=N)N)NC(=O)[C@H](CCC(N)=O)NC(=O)[C@@H](NC(=O)[C@H](C)NC(=O)[C@@H]1CSSC[C@H](NC(=O)[C@H](CCC(=O)O)NC(=O)[C@H](CCCNC(=N)N)NC(=O)[C@H](CCC(=O)O)NC(=O)CC[C@H](NC(=O)CCCCCCCCCCCCCCCCCCC(=O)O)C(=O)O)C(=O)N[C@@H](CC(N)=O)C(=O)N[C@@H]([C@@H](C)O)C(=O)N[C@@H](C)C(=O)N[C@@H]([C@@H](C)O)C(=O)N1)[C@@H](C)O)C(=O)N[C@@H](CC(C)C)C(=O)N1CCC[C@H]1C(=O)N1CCC[C@H]1C(=O)N[C@H](C(=O)N[C@@H](CCC(N)=O)C(=O)N[C@H](C(=O)NCC(=O)N[C@@H](CO)C(=O)N[C@@H](CCC(N)=O)C(=O)N[C@H](C(=O)N1CCC[C@H]1C(N)=O)[C@@H](C)O)C(C)C)[C@@H](C)O [Example 163, N-alpha-[(S)-4-Carboxy-4-(19-carboxynonadecanoylamino)butyryl]-Glu-Arg-[Glu1, Glu14, Arg17, Gln21, Gln31, Gln35, Pro37]-pramlintide] ({C20 diacid-γGlu}-ERECNTATCATQRLAEFLRHSSQNFGPILPPTQVGSQTP-NH2; disulfide 4-9)
- Th T pH 4.0 lag time (h): >45 h
- ThT pH 4.0 lag time: >45 hr
